Experimental data: patent US12240849B2, “Nitrogen-containing spiro derivative as RET inhibitor” (GUANGZHOU BAIYUNSHAN PHARMACEUTICAL HOLDINGS CO., LTD. …, priority 2019, dated 2025)
Read-outs that look alike come from different tables or passages of the source.

Columns and labels:
[1] = Body weight of mice in Ba/F3 KIF5B-RET-V804L xenograft experiment; assay type: in vivo, NPSG mice; details: 10 mg/kg p.o. BID, Ba/F3 KIF5B-RET-V804L model, in g (unit assumed)
Procedure: (§1) 4) After inoculation, the volume and weight of tumors were measured once a week. When the average tumor volume reached 124.5 mm^3, mice with the tumor volume between 82.9 mm^3 and 145.4 mm^3 were selected and randomly grouped according to the volume and weight of tumors with 6 mice in each group. The administration was started immediately after the grouping. The start date of the administration was recorded as day 0.
(§2) 5) After the administration was started, the mice were continuously administrated for 9 days, and the body weight and tumor volume of the mice were measured on day 3, day 6, and day 9.

[2] = test system: Ba/F3 KIF5B-RET-V804L tumor cell xenograft; experiment: Efficacy in Ba/F3 KIF5B-RET-V804L tumor cell xenograft model; assay type: in vivo, NPSG mice
From the text: 1) Ba/F3 KIF5B-RET-V804L cells were resuscitated and cultured in vitro to obtain 5×10^7 cells.
2) Forty-five 6-8 week old female mice were adaptively fed for 1 week and weighed.
3) Ba/F3 KIF5B-RET-V804L tumor cells were subcutaneously inoculated into the right scapula position of the mice so as to establish the engineered cell line Ba/F3 KIF5B3-RET-V804L tumor cell xenograft model. Inoculation conditions were as follows: (see Table 3)
as §1, §2
6) Data statistics were analyzed by one-way ANOVA. Variance homogeneity difference of data was firstly detected. If there was no difference in the variance homogeneity, an LSD method was used for analysis; and if there was a difference in the variance homogeneity, Dunnett's T3 was selected for data analysis. All data were analyzed by using SPSS 17.0. A p value less than 0.05 was considered a significant difference.

[3] = test system: Ba/F3 KIF5B-RET tumor cell xenograft; experiment: Efficacy in engineered cell line Ba/F3 KIF5B-RET xenograft model; assay type: in vivo, NPSG mice; details: for TGI: TGI = 1-ΔT/ΔC; for Tumor Volume on Day 10 / Tumor Volume on Day 0: average ± standard error
From the text: To verify efficacy of drugs to be tested alone on the engineered cell line Ba/F3 KIF5B-RET xenograft model of NPSG mice.
1) Ba/F3 KIF5B-RET cells were resuscitated and cultured in vitro to obtain 4×10^7 cells.
2) Sixty 6-8 week old female NPSG mice were adaptively fed for one week and weighed.
3) The Ba/F3 KIF5B-RET cells were subcutaneously inoculated on right scapula of mice according to the inoculation conditions obtained in the pre-test (see Table 7) to establish the Ba/F3 KIF5B-RET tumor cell xenograft model of NPSG mice.
as §1, with “104” for “124.5”, “mice” for “mice with the tumor volume between 82.9 mm^3 and 145.4 mm^3”, “were” for “were selected and”
(§3) 5) After administration was started, the body weight and tumor volume of the mice were measured respectively on the day 0, day 3, day 6, and day 10.
6) For the experiment of two groups, a T-Test analysis method was used. For a comparison of three or more groups, One-Way ANOVA was used for analysis. For comparing potential synergistic effects, Two-Way ANOVA was used for analysis. All data were analyzed by using SPSS 17.0. A p value less than 0.05 was considered to be a significant difference, and a p value less than 0.01 was considered to be a very significant difference.

[4] = Pharmacokinetic evaluation in mice; assay type: in vivo, CD-1 mice (male); details: male, mouse, plasma, CD-1 mice; for bioavailability: read-out: Bioavailability F; for AUC: read-out: Integrated Concentration AUC; for clearance: read-out: Clearance Rate; for half-life: read-out: Half-life T1/2 (converted)
From the text: Experiment objective: to test the pharmacokinetic of compound in mice
Experiment material: CD-1 mice (male)
Experiment operations: the pharmacokinetic characteristics of rodents after intravenous injection and oral administration of the compounds were obtained by using a standard scheme. In the experiment, candidate compounds were formulated into clear solutions, and mice were administrated by a single intravenous injection and oral administration. The solvent of the intravenous injection and oral administration was 10% PEG400 (polyethylene glycol 400)+90%(10% hydroxypropyl-β-cyclodextrin). The whole blood samples were collected within 24 hours. All the blood samples were added respectively into labeled plastic centrifuge tubes in which 0.5 M K2-EDTA anticoagulants were pre-added. The blood samples were collected, and centrifuged at 3,000 g for 10 min at 4° C. The supernatant plasma was collected by absorbing and quickly placed in dry ice to keep at −20° C. or lower. Blood concentrations were quantitatively analyzed by using an LC-MS/MS analysis method, and pharmacokinetic parameters, such as peak concentration, peak time, clearance rate, half-life, area under drug concentration-time curve, bioavailability, etc. were calculated.

[5] = Body weight of mice in Ba/F3 KIF5B-RET xenograft experiment; assay type: in vivo, NPSG mice; details: Ba/F3 KIF5B-RET model, in g (unit assumed)
Procedure: as §1, with “104” for “124.5”, “mice” for “mice with the tumor volume between 82.9 mm^3 and 145.4 mm^3”, “were” for “were selected and”
as §3

human wild-type RET = biological target: T1, human wild-type RET (Homo sapiens, UniProt P07949); experiment: 33P isotope-labeled kinase activity test, wild-type RET; assay type: biochemical; details: 33P-ATP at Km concentration
T1 construct: purchased Reaction Biology Corp
Procedure: (§4) ^33P isotope-labeled kinase activity test (Reaction Biology Corp) was used to determine IC50 value so as to evaluate an inhibitory ability of a test compound on human wild-type, V804M and V804L mutant RET.
(§5) Buffer solution condition: 20 mM 4-(2-hydroxyethyl)piperazine-1-ethanesulfonic acid (Hepes) (pH 7.5), 10 mM MgCl2, 1 mM 1,2-bis[2-[bis(carboxymethyl)amino]ethoxy]ethane (EGTA), 0.02% polyoxyethylene lauryl ether (Brij35), 0.02 mg/mL bovine serum albumin (BSA), 0.1 mM of Na3VO4, 2 mM dithiothreitol (DTT) and 1% DMSO.
(§6) Compound treatment: the compound to be tested was dissolved in 100% DMSO, and then the obtained solution was continuously diluted with DMSO by using Integra Viaflo Assist until a specific concentration was obtained.
(§7) Test procedures: a substrate was dissolved in the newly prepared buffer solution, a kinase to be tested was added therein, and the obtained solution was gently and evenly mixed. DMSO solution in which a compound to be test was dissolved was added in the above evenly mixed reaction solution by using an acoustic technology (Echo 550), and then incubated for 20 minutes at room temperature. […] Kinase activity data was expressed by comparing the kinase activity of the compound to be tested with the kinase activity of a blank group (containing only DMSO). The IC50 value was obtained by curve fitting with Prism4 software (GraphPad).

V804M mutant RET = biological target: T2, V804M mutant RET (Homo sapiens, UniProt P07949, V804M); experiment: 33P isotope-labeled kinase activity test, V804M mutant RET; assay type: biochemical; details: 33P-ATP at Km concentration
T2 construct: purchased Reaction Biology Corp
Procedure: as §4, §5, §6, §7

V804L mutant RET = biological target: T3, V804L mutant RET (Homo sapiens, UniProt P07949, V804L); experiment: 33P isotope-labeled kinase activity test, V804L mutant RET; assay type: biochemical; details: 33P-ATP at Km concentration
T3 construct: purchased Reaction Biology Corp
Procedure: as §4, §5, §6, §7

[6] = 10 mg/kg, oral administration 10 mpk
[7] = iv, 2 mg/kg, injection administration 2 mpk

T1 sequence (P07949 29-1114): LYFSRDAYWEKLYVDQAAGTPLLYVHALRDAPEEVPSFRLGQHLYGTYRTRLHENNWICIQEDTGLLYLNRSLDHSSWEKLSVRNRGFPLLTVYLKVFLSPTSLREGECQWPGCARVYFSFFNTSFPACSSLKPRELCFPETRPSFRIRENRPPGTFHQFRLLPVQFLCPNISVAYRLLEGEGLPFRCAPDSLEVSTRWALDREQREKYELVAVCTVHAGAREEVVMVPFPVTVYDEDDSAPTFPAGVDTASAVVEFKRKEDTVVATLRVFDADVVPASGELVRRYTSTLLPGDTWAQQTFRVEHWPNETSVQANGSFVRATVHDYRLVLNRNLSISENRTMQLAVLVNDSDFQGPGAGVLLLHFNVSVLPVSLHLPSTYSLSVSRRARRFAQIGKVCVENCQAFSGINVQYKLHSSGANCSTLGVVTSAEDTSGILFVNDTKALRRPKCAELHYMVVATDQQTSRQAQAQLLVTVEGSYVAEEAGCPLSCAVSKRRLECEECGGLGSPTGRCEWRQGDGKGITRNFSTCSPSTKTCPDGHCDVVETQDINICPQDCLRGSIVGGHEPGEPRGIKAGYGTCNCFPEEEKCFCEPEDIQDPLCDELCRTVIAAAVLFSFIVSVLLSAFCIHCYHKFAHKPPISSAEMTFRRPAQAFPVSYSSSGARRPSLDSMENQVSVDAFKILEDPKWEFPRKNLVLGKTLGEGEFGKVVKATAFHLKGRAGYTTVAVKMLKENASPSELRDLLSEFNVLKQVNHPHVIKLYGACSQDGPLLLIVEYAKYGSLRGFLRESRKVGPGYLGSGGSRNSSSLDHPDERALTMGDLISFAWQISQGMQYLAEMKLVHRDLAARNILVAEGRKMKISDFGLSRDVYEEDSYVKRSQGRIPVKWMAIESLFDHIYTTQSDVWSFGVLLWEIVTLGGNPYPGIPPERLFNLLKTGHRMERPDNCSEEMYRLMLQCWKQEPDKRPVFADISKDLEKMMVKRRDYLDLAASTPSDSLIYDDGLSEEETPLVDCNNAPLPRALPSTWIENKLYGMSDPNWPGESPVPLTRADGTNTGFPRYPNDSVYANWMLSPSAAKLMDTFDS
T3 sequence (P07949 29-1114 V804L): as the sequence (P07949 29-1114) above, with V776L counted along it
T2 sequence (P07949 29-1114 V804M): as the sequence (P07949 29-1114) above, with V776M counted along it

| bioavailability [4, 6] [%] | AUC [4, 6] [µM·h] | clearance [4, 7] [mL/min/kg] | half-life [4, 7] [h] | AUC [4, 7] [µM·h] | IC50 (human wild-type RET) [nM] | SMILES | Body weight ([1]; day 0) | Body weight ([1]; day 3) | Body weight ([1]; day 6) | Body weight ([1]; day 9) | ΔVAC ([2]; 10 mg/kg p.o. BID Day 0-Day 9) [%] | ΔVAC ([3]; 10 mg/kg p.o. BID Day 0-Day 10) [%] | Body weight ([5]; day 0, 10 mg/kg p.o. BID) | Body weight ([5]; day 3, 10 mg/kg p.o. BID) | Body weight ([5]; day 6, 10 mg/kg p.o. BID) | Body weight ([5]; day 10, 10 mg/kg p.o. BID) | also measured |
| --- | --- | --- | --- | --- | --- | --- | --- | --- | --- | --- | --- | --- | --- | --- | --- | --- | --- |
| 53.7 | 49.6 | 1.65 | 2.53 | 16.4 | – | Cc1cc(Nc2cc(C)nc(C3CCC4(CC3)OCCN(C(C)c3ccc(-n5cc(F)cn5)nc3)C4=O)n2)[nH]n1 (single isomer, unassigned) [Compound 014] | 19.5 ± 0.53 | 20.3 ± 0.72 | 20.5 ± 0.72 | 20.3 ± 0.84 | −6 | 1 | 18 ± 0.57 | 18.5 ± 0.47 | 18.5 ± 0.75 | 18.6 ± 0.62 | – |
| – | – | – | – | – | 73.9 | Cc1cc(Nc2cc(C)nc(N3CCC4(CC3)CCN(C(C)c3ccc(-n5cc(F)cn5)nc3)C4)n2)[nH]n1 (stereo not drawn) [Compound 003-h] | – | – | – | – | – | – | – | – | – | – | – |
| 59.7 | 27.7 | 6.55 | 2.56 | 9.3 | 1.29 | Cc1cc(Nc2cc(C)[nH]n2)nc(N2CCC3(CC2)OCCN(C(C)c2ccc(-n4cc(F)cn4)nc2)C3=O)n1 (stereo not drawn) [Compound 018] | 18.6 ± 0.49 | 18.8 ± 0.48 | 18.6 ± 0.87 | 19 ± 0.64 | −7 | 10 | 17.7 ± 0.47 | 18.2 ± 0.51 | 18.5 ± 0.57 | 17.7 ± 0.86 | IC50 (V804M mutant RET): 1.97 nM; TGI ([2]; 10 mg/kg p.o. BID Day 0-Day 9, TGI = 1-ΔT/ΔC): 107%; Tumor Volume on Day 9 ([2]; 10 mg/kg p.o. BID Day 0-Day 9, average ± standard error): 75.5 ± 7.11 mm^3; Tumor Volume on Day 0 ([2]; 10 mg/kg p.o. BID, average ± standard error): 125 ± 3.96 mm^3; TGI ([3]; 10 mg/kg p.o. BID Day 0-Day 10): 90%; Tumor Volume on Day 10 ([3]; 10 mg/kg p.o. BID Day 0-Day 10): 205.1 ± 29.87 mm^3; Tumor Volume on Day 0 ([3]; 10 mg/kg p.o. BID): 106.3 ± 7.14 mm^3; ΔVAC ([3]; 20 mg/kg p.o. BID Day 0-Day 10): −7%; TGI ([3]; 20 mg/kg p.o. BID Day 0-Day 10): 107%; Tumor Volume on Day 10 ([3]; 20 mg/kg p.o. BID Day 0-Day 10): 32.8 ± 6.81 mm^3; Tumor Volume on Day 0 ([3]; 20 mg/kg p.o. BID): 102.2 ± 7.09 mm^3; Body weight ([5]; day 0, 20 mg/kg p.o. BID): 17.6 ± 0.58; Body weight ([5]; day 3, 20 mg/kg p.o. BID): 18.1 ± 0.56; Body weight ([5]; day 6, 20 mg/kg p.o. BID): 18.3 ± 0.53; Body weight ([5]; day 10, 20 mg/kg p.o. BID): 18.5 ± 0.63; IC50 (V804L mutant RET): 1.23 nM |
